Experimental data as given in patent US20200254065A1, “LONG-ACTING GLP-2 ANALOGS” (OPKO Biologics Ltd., priority 2019, published 2020).
Where two headings read alike, the source gives them in different places. Numbered stars: 1 amine (or outer) side, 2 acyl side, 3 side chain; on linkers, the order of the positions; unused ones are H or OH. Square brackets hold non-standard residues; d marks the D form. Ends that are not written are not given here. Peptide text beside a SMILES is read from it. * marks the point of attachment. X2 = O=C(OCC1c2cc(N[*:1])ccc2-c2ccc(S(=O)(=O)O)cc21)[*:2]; X1 = N[C@@H](CSC1CC(=O)N(CCC(=O)*)C1=O)C(=O)O; Nle = CCCC[C@H](N)C(=O)O

Legend:
[1] = tested on: small intestine; experiment: Intestine weight model in rats; format: in vivo, SD rats
Description: In the pharmacology study, the conjugates were injected subcutaneously twice, on days 1 and 3 at 1 mg/kg (peptide dose) and intestine weight was performed on day 6. In addition to the PEGylated conjugates, GLP-2-Gly2 was injected at the same dose and regimen for comparison. The average of the intestine weight of each group was compared to that of the vehicle group.
In a different study, several of the PEGylated teduglutide were injected as a single dose at 1 mg/kg and the intestine weight performed on day 6.
Pharmacology and pharmacokinetic studies were performed with the most promising GLP-2 variants to evaluate their efficacy and longevity, respectively. The intestine weight model in rats was conducted to evaluate efficacy, by measuring percent increase of the intestine weight of treated animals over the vehicle group. In this study, the peptides were injected twice, on days 1 and 3 at 1 mg/kg and the intestine weight was conducted on day 6.
PEG20-FMS-V6, PEG20-Fmoc-V6 and PEG40-FMS-V6 were injected once at 1 mg/kg dose on day 1, while group D was also injected twice on days 1 & 3 at 1 mg/kg. The intestine weight was performed on day 6.
Three different reversible PEGylated GLP-2 variants using mutated peptide #4 were injected at 2 mg/kg (peptide dose), once every 6 days for 12 days. On the 12th day the intestine was weighted and compared to the control group. PEG30-FMS-V4 was injected at 0.5 mg/kg as well to evaluate the efficacy dose range.
In addition to PEG30-FMS-V4 and PEG30-Fmoc-V4 that have been pharmacology evaluated by small intestinal weight evaluation (As shown in Example 5), four other reversible PEGylated variant 4 (“V4”) conjugates and two reversible linker-V4 conjugates were synthesized. All the above were injected to 6 normal SD rats/group once at 2 mg/kg (peptide dose), while on the 6th day, animals were scarified, and the small intestine was weighted followed by histopathology evaluation. […] Therefore, slices from three areas of the intestine (duodenum, jejunum and ilium) were stained with hematoxylin and eosin and at least 7 Crypts+Villi length/slice were measured. The averaged Villi+Crypt length of each treatment group (n=6) was compared to the vehicle group (negative control) and calculated as percentage increase over vehicle.
Additional studies were conducted to evaluate the efficacy of the V4 peptide and the reversible MAL-FMS-V4. The long acting effect of V4 and the conjugates were evaluated at Day 6 and Day 10 following treatment (Study reference 15203). All test groups (n=9) were injected SC with 2 mg/kg peptide content at Day 1. At Days 6 and 10, animals were sacrificed and the small intestine underwent histopathology evaluation (6 animals for Day 6, 3 animals for Day 10). FIGS. 12 and 13 show the pharmacology effect of different V4 conjugates and Apraglutide and Glepaglutide as measured by the percent increase of small intestine weight and crypts plus villi length over vehicle, respectively.
To further evaluate the pharmacology efficacy of V4 and Cys-FMS-V4, an experiment was performed to test their acute and prolonged effect on the small intestine (Study reference 15205). In addition, V4 and Cys-FMS-V4 were administrated as a single SC injection on Day 1 at 3 different doses (0.5, 2.0 or 8.0 mg/kg peptide content, 6 rats per group) to assess the dose dependence effect. The pharmacological effect on small intestine weight and villi plus crypts length was measured at Days 3, 7 and 14, and the results are presented in FIGS. 15 and 16. […] It should be noted that this acute response was higher for V4 compared to Cys-FMS-V4 at all 3 dose levels.

[2] = PK after single SC injection in rats (LC-MS/MS); conditions: rat, in vivo, 2 mg/kg
Description: To support the pharmacodynamic effects of V4 and Cys-FMS-V4 as detailed in Example 9, a pharmacokinetic analysis was also conducted. In this study (Study reference 15204), all animals were injected SC on Day 1 with 2 mg/kg peptide content of V4, Cys-FMS-V4 and Apraglutide. Blood samples were collected at 2, 8, 12, 24, 36, 48, 72, 96, 120 hours, and Days 7, 8, 9, 10, 11, 12, 13 and 14 post-dose administration and subsequently taken to LC-MS/MS analysis to determine plasma levels of each compound. For Cys-FMS-V4, a 2-analyte method was applied to determine the plasma concentrations of both the full conjugate and the V4 that was hydrolyzed from it (V4 hydrolyzed). Plasma concentrations (μM), as measured by using the LC-MS/MS method, of V4 peptide, Cys-FMS-V4, hydrolyzed V4, and Apraglutide are presented in FIG. 17.

[3] = PK after single IV injection in rats; format: in vivo
From the text: Blood samples were collected at 0.5, 2, 4, 8, 12, 24, 36, 48, 72, 96- and 120-hours post-dose administration.

[4] = 2-compartmental pharmacokinetic modelling (MONOLIX 2018R2); format: in vivo, rat; conditions: for half-life: rat, in vivo
Description: An in-depth PK modeling was performed to address the unexpected differences in half life, distribution, and pharmacological effect between V4, Cys-FMS-V4, and Apraglutide in the rat model. The analysis was performed with MONOLIX 2018R2 suite using a 2-compartmental pharmacokinetic model. The data used in this analysis was comprised from 3 independent experiments (data is presented as their average). The concentration versus time data of V4 that was formed from the Cys-FMS-V4 conjugate (the hydrolyzed peptide) was described appropriately using the values of the pharmacokinetic parameters of V4 peptide. Thus, the disposition of the hydrolyzed V4 was identical to that of the V4 peptide following the IV and SC administration.
The pharmacokinetics of Apraglutide in our studies was determined after SC administration. […] Based on this assumption, the values of volumes of distribution and clearance (Vpept, Vss, Vbeta, and CL) were calculated for Apraglutide (Table 13). The values of the other parameters of Apraglutide in Table 14 (the rate constants and the half-lives) are not dependent on this assumption.

[5] = SD rats, SC on days 1 and 3 at 1 mg/kg peptide dose (2 injections), intestine weight on day 6
[6] = 0.5 mg/kg peptide dose once every 6 days for 12 days, weighed on 12th day
[7] = 2 mg/kg peptide dose once every 6 days for 12 days, weighed on 12th day
[8] = single dose 1 mg/kg peptide, intestine weight on day 6, average of two studies
[9] = rats, single IV 2 mg/kg peptide content

## PEG(Branch20)-FMS-(GLP-2-Gly2): teduglutide reversibly PEGylated with branched PEG via FMS linker; tables say Branch20, b275 Branched30
[1]; [5]
  Average Intestine weight (gr): 7.8 gr
  Increase of intestine weight over vehicle (%): 42%

## PEG40-EMCS-(GLP-2-Gly2): non-reversible PEGylation (PEG40, EMCS) conjugated to GLP-2-Gly2
[1]; [5]
  Average Intestine weight (gr): 6.6 gr
  Increase of intestine weight over vehicle (%): 19%

## PEG30-FMS-V4 (HGEGSFSDE[Nle]NTILDLLAARDFINWLIQTKITD-NH2; also: PEG30-FMS conjugate, place not given here)
[1]; [6]
  Average Intestine weight (gr): 5.2 gr
  Increase of intestine weight over vehicle (%): −14%
[1]; [7]
  Average Intestine weight (gr): 6.9 gr
  Increase of intestine weight over vehicle (%): 15%

## CCCC[C@H](NC(=O)[C@H](CCC(=O)O)NC(=O)[C@H](CC(=O)O)NC(=O)[C@H](CO)NC(=O)[C@H](Cc1ccccc1)NC(=O)[C@H](CO)NC(=O)CNC(=O)[C@H](CCC(=O)O)NC(=O)CNC(=O)[C@@H](N)Cc1c[nH]cn1)C(=O)N[C@@H](CC(N)=O)C(=O)N[C@H](C(=O)N[C@H](C(=O)N[C@@H](CC(C)C)C(=O)N[C@@H](CC(=O)O)C(=O)N[C@@H](CC(C)C)C(=O)N[C@@H](CC(C)C)C(=O)N[C@@H](C)C(=O)N[C@@H](C)C(=O)N[C@@H](CCCNC(=N)N)C(=O)N[C@@H](CC(=O)O)C(=O)N[C@@H](Cc1ccccc1)C(=O)N[C@H](C(=O)N[C@@H](CC(N)=O)C(=O)N[C@@H](Cc1c[nH]c2ccccc12)C(=O)N[C@@H](CC(C)C)C(=O)N[C@H](C(=O)N[C@@H](CCC(N)=O)C(=O)N[C@H](C(=O)N[C@@H](CCCCN)C(=O)N[C@H](C(=O)N[C@H](C(=O)N[C@@H](CC(=O)O)C(N)=O)[C@@H](C)O)[C@@H](C)CC)[C@@H](C)O)[C@@H](C)CC)[C@@H](C)CC)[C@@H](C)CC)[C@@H](C)O [V4 (hydrolyzed)] (H-HGEGSFSDE[Nle]NTILDLLAARDFINWLIQTKITD-NH2)
[2]
  Cl/F obs: 0.034 (μmol/kg)/(μmol/L)/h
  Vz/F_obs: 2.19 (μmol/kg)/(μmol/L)
[3]; rat, in vivo, iv, 2 mg/kg
  Cl/F_obs: 0.042 (μmol/kg)/(μmol/L)/h
  Vz/F_obs: 0.487 (μmol/kg)/(μmol/L)

## PEG30-FMS-(GLP-2-Gly2): teduglutide reversibly PEGylated, PEG30 via FMS linker; heterogenous mixture of N terminus and Lys30 attachment
[1]; [5]
  Average Intestine weight (gr): 9.5 gr
  Increase of intestine weight over vehicle (%): 73%
[1]; [8]
  Increase of intestine weight over vehicle (%): 34%

## PEG40-FMS-(GLP-2-Gly2): teduglutide reversibly PEGylated, PEG40 via FMS linker; heterogenous mixture of N terminus and Lys30 attachment
[1]; [5]
  Average Intestine weight (gr): 9.3 gr
  Increase of intestine weight over vehicle (%): 70%
[1]; [8]
  Increase of intestine weight over vehicle (%): 27%

## CCCC[C@H](NC(=O)[C@H](CCC(=O)O)NC(=O)[C@H](CC(=O)O)NC(=O)[C@H](CO)NC(=O)[C@H](Cc1ccccc1)NC(=O)[C@H](CO)NC(=O)CNC(=O)[C@H](CCC(=O)O)NC(=O)CNC(=O)[C@H](Cc1c[nH]cn1)NC(=O)OCC1c2cc(NC(=O)CCN3C(=O)CC(SC[C@H](N)C(=O)O)C3=O)ccc2-c2ccc(S(=O)(=O)O)cc21)C(=O)N[C@@H](CC(N)=O)C(=O)N[C@H](C(=O)N[C@H](C(=O)N[C@@H](CC(C)C)C(=O)N[C@@H](CC(=O)O)C(=O)N[C@@H](CC(C)C)C(=O)N[C@@H](CC(C)C)C(=O)N[C@@H](C)C(=O)N[C@@H](C)C(=O)N[C@@H](CCCNC(=N)N)C(=O)N[C@@H](CC(=O)O)C(=O)N[C@@H](Cc1ccccc1)C(=O)N[C@H](C(=O)N[C@@H](CC(N)=O)C(=O)N[C@@H](Cc1c[nH]c2ccccc12)C(=O)N[C@@H](CC(C)C)C(=O)N[C@H](C(=O)N[C@@H](CCC(N)=O)C(=O)N[C@H](C(=O)N[C@@H](CCCCN)C(=O)N[C@H](C(=O)N[C@H](C(=O)N[C@@H](CC(=O)O)C(N)=O)[C@@H](C)O)[C@@H](C)CC)[C@@H](C)O)[C@@H](C)CC)[C@@H](C)CC)[C@@H](C)CC)[C@@H](C)O (stereo partly drawn) [Cys-FMS-V4] (X1-[X2]HGEGSFSDE[Nle]NTILDLLAARDFINWLIQTKITD-NH2)
[3]; rats, single IV 2 mg/kg
  Fraction of V4 released from the conjugate (AUC ratio): ~35%
[3]; [9]
  Cl/F_obs: 0.064 (μmol/kg)/(μmol/L)/h
  Vz/F_obs: 0.260 (μmol/kg)/(μmol/L)
[3]; rats, single IV 2 mg/kg, 24 hours post injection
  Detectability in blood after IV administration: could not be detected 24 hours post injection
[4]; 53.8% SC bioavailability, 67.9% hydrolyzed to V4
  Fraction of Cys-FMS-V4 converted to V4 following SC administration: approximately 36.5%
[4]; Cys-FMS-V4 conjugate
  Vconj: 0.119 L/kg
  ka—conj: 0.0717 h⁻¹
  kconje: 0.207 h⁻¹
  kh: 0.438 h⁻¹
[4]; Cys-FMS-V4 conjugate, SC bioavailability fraction
  Fconj: 0.538
[4]; absorbed Cys-FMS-V4 hydrolyzed to V4
  % to V4: 67.9%
[4]; Cys-FMS-V4 conjugate, Table 15, read-out: t1/2 absorption (converted)
  half-life: 9.67 h
[4]; Cys-FMS-V4 conjugate, read-out: t1/2 hydrolysis (converted)
  half-life: 1.58 h
[4]; Cys-FMS-V4 conjugate, read-out: t1/2 other pathways (converted)
  half-life: 3.35 h

## PEGBranched40-FMS-(GLP-2-Gly2): teduglutide reversibly PEGylated with branched PEG40 via FMS linker
[1]; [5]
  Average Intestine weight (gr): 8.1 gr
  Increase of intestine weight over vehicle (%): 48%
[1]; [8]
  Increase of intestine weight over vehicle (%): 22%

## PEG30-NRF-V4 (HGEGSFSDE[Nle]NTILDLLAARDFINWLIQTKITD-NH2; also: PEG30-NRF conjugate, place not given here)
[1]; normal SD rats, injected once at 2 mg/kg peptide dose, 6th day
  Avg. small intestine weight (gr): 4.0 gr
[1]; normal SD rats, injected once at 2 mg/kg peptide dose, 6th day, MAL-FMS-V4 compared to Vehicle 2
  Small intestine weight increase over vehicle (%): −8.0%

## PEG40-Fmoc-(GLP-2-Gly2): teduglutide reversibly PEGylated, PEG40 via Fmoc linker; heterogenous mixture of N terminus and Lys30 attachment
[1]; [7]
  Average Intestine weight (gr): 6.9 gr
  Increase of intestine weight over vehicle (%): 14%
[1]; [5]
  Average Intestine weight (gr): 9.4 gr
  Increase of intestine weight over vehicle (%): 72%
[1]; [8]
  Increase of intestine weight over vehicle (%): 31%
